Six molecules from patent US11000537B2, “Composition comprising novel ginsenoside” (AMOREPACIFIC CORPORATION, priority 2018, dated 2021) can be followed below.

In one assay the target is T1, pancreatic α-amylase (Sus scrofa, UniProt P00690).
T1 construct: purchased Sigma
T1 sequence (P00690 16-511): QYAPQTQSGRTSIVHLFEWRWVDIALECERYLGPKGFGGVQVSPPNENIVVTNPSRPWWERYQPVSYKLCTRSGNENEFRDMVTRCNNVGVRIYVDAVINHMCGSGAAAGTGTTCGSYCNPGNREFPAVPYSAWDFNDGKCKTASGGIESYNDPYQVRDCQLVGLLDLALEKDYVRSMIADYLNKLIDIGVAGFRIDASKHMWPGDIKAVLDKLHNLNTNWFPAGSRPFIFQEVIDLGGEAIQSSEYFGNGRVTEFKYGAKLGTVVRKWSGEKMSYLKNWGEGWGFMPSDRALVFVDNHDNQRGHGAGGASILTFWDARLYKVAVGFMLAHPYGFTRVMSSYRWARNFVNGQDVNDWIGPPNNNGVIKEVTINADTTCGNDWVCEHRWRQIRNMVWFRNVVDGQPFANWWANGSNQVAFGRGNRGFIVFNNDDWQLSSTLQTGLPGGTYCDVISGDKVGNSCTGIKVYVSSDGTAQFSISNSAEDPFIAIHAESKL
Put plainly: α-amylase enzyme activity inhibition. Format: biochemical. The following applies: Test Example 1, FIG. 11; ginseng seed ginsenosides compared. The method, then:
(§1) As a polysaccharide degrading enzyme, pancreatic α-amylase and α-glucosidase were purchased from Sigma, and the enzyme activity of novel ginsenoside GS #10, which is an example of the present disclosure, isolated from Ginseng seed extract and ginsenosides GS #01-GS #06, which are comparative examples of the present disclosure, was measured. In order to measure α-amylase activity, enzyme solution was prepared by dissolving BSA 0.1 g, 0.01 g/L NaN3, α-amylase 0.2857 g in 50 mL of PBS (phosphate buffered saline), and 5 mM of p-nitrophenyl-α-D-maltopentoglycoside was dissolved in another PBS to make a substrate solution. 0.1 mL of the test substance was added to 0.5 mL of the enzyme solution, and then the initial absorbance was measured at 405 nm. After adding 0.5 mL of the substrate solution and reacting it for 5 minutes, the absorbance was measured again. The change in enzyme activity was measured by the difference in absorbance between the two reactions. The method for measuring α-glucosidase activity is the same as the method for measuring α-amylase activity, and differs only in α-glucosidase and substrate (p-nitrophenyl-α-D-glucopyranoside). As a positive control to observe the inhibition of enzyme activity, acarbose, which is an α-amylase inhibitor and α-glucosidase inhibitor derived from wheat seed sold by Sigma, was used.

A further assay relates to α-glucosidase. Put plainly: α-glucosidase enzyme activity inhibition. As to conditions: Test Example 1, FIG. 12; ginseng seed ginsenosides compared. Format: biochemical. The method, then: as §1
The subject of the next assay is pancreatic lipase. Put plainly: pancreatic lipase activity inhibition (Pancreatic Lipase Activity Assay Kit). As to conditions: 10 μM, 1 hour; FIG. 22. In kind it is cell-based. As to the method:
The hepatocyte cell line HepG2 purchased from the International Center for Biological Resources (ATCC) were placed in Dulbecco's Modified Eagle's Medium (Sigma) to which 10% fetal bovine serum (Hyclone) and 1% penicillin/streptomycin (Sigma) were added, and cultured in a 5% CO2 incubator. As a positive control for the cells, Xenical (Sigma), which are used as pancreatic lipase inhibitors and anti-obesity therapeutic agents, and seven types of ginsenosides (GS #01-GS #06, GS #10; 10 μM each) extracted from Ginseng seed were treated for 1 hour. In addition, Pancreatic Lipase Activity Assay Kit (Abcam) was used to observe the inhibition of each lipase activity.

A further assay concerns adipocyte cell 3T3-L1. Put plainly: fat accumulation in adipocytes (Oil-red O staining). Format: cell-based. As to conditions: 10 μM during 48 hours of differentiation; FIG. 34. The method, then:
The adipocyte cell 3T3-L1 purchased from the International Center for Biological Resources (ATCC) were placed in Dulbecco's Modified Eagle's Medium (Sigma) to which 10% fetal bovine serum (Hyclone) and 1% penicillin/streptomycin (Sigma) were added, and cultured in a 5% CO2 incubator. In order to differentiate preadipocytes into adipocytes, the cells were filled in a culture plate and cultured. After 48 hours, the cells were replaced with Dulbecco's modified eagle medium (DMEM) to which 10% of fetal bovine serum (Hyclone), 0.5 mM of 3-isobutyl-1-methylxanthine (Sigma), 1 μM of dexamethasone (Sigma), 5 μg/ml of insulin (Sigma), 1% of penicillin/streptomycin (Sigma) were added and further cultured for 48 hours. […] As a control to confirm the effect of inhibiting adipocyte differentiation, 20 μM of bisphenol A diglycidyl ether (BADGE) (Sigma), a PPARγ (Peroxisome proliferator-activated receptor gamma) antagonist, was used. Thereafter, the cells were further cultured for 10 days while being replaced with a medium containing 10% FBS and 5 μg/ml insulin and 1% penicillin/streptomycin at two-day intervals to induce adipocyte differentiation.
Differentiated adipocytes treated with each of the seven types of ginsenosides were fixed with formaldehyde solution (Sigma), stained with Oil-red O staining solution (Sigma), and then dissolved with isopropanol (Sigma), and then the amount of the stained fat was quantified by measuring at 490 nm absorbance.

The subject of the next assay is 3T1-L1 adipocytes. Kind of assay: glucose uptake (glucose transport) in differentiated adipocytes. In kind it is cell-based. As to conditions: 10 μM, FIG. 13. The method, then: 3T1-L1 adipocytes (ATCC) were purchased, and 10% bovine calf serum (Hyclone) and 1% penicillin/streptomycin (Sigma) were added to a Dulbecco's Modified Eagle's Medium (Sigma) and cultured in a 5% CO2 culture medium. In order to differentiate preadipocyte cells into adipocytes, a culture plate was filled with cells and cultured for 48 hours. The cells were then replaced in a DMEM medium to which 10% fetal bovine serum (FBS) (Hyclone), 0.5 mM 3-isobutyl-1-methylxanthine (Sigma), 1 μM dexamethasone (Sigma), 5 μg/ml insulin (Sigma), and 1% penicillin/streptomycin were added and cultured for another 48 hours. Thereafter, the cells were further cultured for 14 days while being replaced in a medium containing 10% FBS, 5 μg/ml insulin, and 1% penicillin/streptomycin at two-day intervals to obtain fully differentiated adipocytes. […] As a positive control for measuring glucose uptake in blood, Metformin (Sigma; 10 μM), which is used as a diabetic therapeutic agent, was used, and novel ginsenoside GS #10, which is an example of the present disclosure, isolated from Ginseng seed extract and ginsenosides GS #01-GS #06, which are comparative examples of the present disclosure, were treated with 10 μM each. In addition, both insulin-dependent/independent glucose transport capacity was measured by treating insulin together, which may promote glucose uptake.

The mark [1] stands for this setting: combined with insulin (+insulin).
[2] abbreviates: material-only treatment (−insulin).

`CC(C)=CCC[C@](C)(O[C@@H]1O[C@H](CO[C@@H]2OC[C@H](O)[C@H](O)[C@H]2O)[C@@H](O)[C@H](O)[C@H]1O)[C@H]1CC[C@]2(C)[C@@H]1[C@H](O)C[C@@H]1[C@@]3(C)CC[C@H](O[C@@H]4O[C@H](CO)[C@@H](O)[C@H](O)[C@H]4O[C@@H]4O[C@H](CO)[C@@H](O)[C@H](O)[C@H]4O)C(C)(C)[C@@H]3CC[C@]12C` [GS #06, ginsenoside Rb2, reference compound]: the “α-amylase activity inhibitory effect” value on pancreatic α-amylase is “all except GS #06 showed significant activity inhibitory effect”. For the same molecule, the “α-glucosidase activity inhibitory effect” value with α-glucosidase was “no activity inhibitory effect”. Besides, the “pancreatic lipase activity inhibitory effect” value in the assay with pancreatic lipase is “except for some of the previously known ginsenosides (GS #05, GS #06), all showed a significant inhibitory effect”. In addition, in the assay on adipocyte cell 3T3-L1, the “fat accumulation inhibitory effect in adipocytes” value is “except some (GS #05, GS #06) of seven types of ginsenosides (GS #01-GS #06, GS #10; 10 μM each) extracted from Ginseng seeds, all of them was observed to reduce the amount of fats in adipocytes”.

Take `CC(C)=CCC[C@](C)(O[C@@H]1O[C@H](CO)[C@@H](O)[C@H](O)[C@H]1O)[C@H]1CC[C@]2(C)[C@@H]1[C@H](O)C[C@@H]1[C@@]3(C)CC[C@H](O)C(C)(C)[C@@H]3[C@@H](O[C@@H]3O[C@H](CO)[C@@H](O)[C@H](O)[C@H]3O)C[C@]12C` [GS #01, ginsenoside Rg1]: the glucose transport promotion result in the assay on 3T1-L1 adipocytes (setting [1]) is on record as “further increase by insulin treatment”; in the assay with 3T1-L1 adipocytes (setting [2]) it was “statistically significant glucose transport promotion”.

Turning to `CC(C)=CCC[C@](C)(O)[C@H]1CC[C@]2(C)[C@@H]1[C@H](O)C[C@@H]1[C@@]3(C)CC[C@H](O)C(C)(C)[C@@H]3[C@@H](O[C@@H]3O[C@H](CO)[C@@H](O)[C@H](O)[C@H]3O[C@@H]3O[C@@H](C)[C@H](O)[C@@H](O)[C@H]3O)C[C@]12C` [GS #02, ginsenoside Rg2], the glucose transport promotion result in the assay with 3T1-L1 adipocytes (setting [1]) is “further increase by insulin treatment”; in the assay with 3T1-L1 adipocytes (setting [2]), “statistically significant glucose transport promotion”.

Regarding `CC(C)=CCC[C@](C)(O[C@@H]1O[C@H](CO)[C@@H](O)[C@H](O)[C@H]1O)[C@H]1CC[C@]2(C)[C@@H]1[C@H](O)C[C@@H]1[C@@]3(C)CC[C@H](O)C(C)(C)[C@@H]3[C@@H](O[C@@H]3O[C@H](CO)[C@@H](O)[C@H](O)[C@H]3O[C@@H]3O[C@@H](C)[C@H](O)[C@@H](O)[C@H]3O)C[C@]12C` [GS #03, ginsenoside Re], the glucose transport promotion result with 3T1-L1 adipocytes (setting [1]) is on record as “further increase by insulin treatment”; in the assay on 3T1-L1 adipocytes (setting [2]), “statistically significant glucose transport promotion”.

As for `CN(C)C(=N)N=C(N)N` [metformin, Metformin], in the assay on 3T1-L1 adipocytes (setting [1]), the glucose transport promotion result was “the glucose transport is further increased as compared with the insulin-only treatment group”.

Turning to `CC(C)=CCC[C@](C)(O[C@@H]1O[C@H](CO[C@@H]2O[C@H](CO)[C@@H](O)[C@H](O)[C@H]2O)[C@@H](O)[C@H](O)[C@H]1O)[C@H]1CC[C@]2(C)[C@@H]1[C@H](O)C[C@@H]1[C@@]3(C)CC[C@H](O[C@@H]4O[C@H](CO)[C@@H](O)[C@H](O)[C@H]4O[C@@H]4O[C@H](CO)[C@@H](O)[C@H](O)[C@H]4O)C(C)(C)[C@@H]3CC[C@]12C` [GS #05, ginsenoside Rb1, reference compound], in the assay on α-glucosidase, the “α-glucosidase activity inhibitory effect” value is given as “no activity inhibitory effect”. Moreover, in the assay on pancreatic lipase, the “pancreatic lipase activity inhibitory effect” value was “except for some of the previously known ginsenosides (GS #05, GS #06), all showed a significant inhibitory effect”. Further, the “fat accumulation inhibitory effect in adipocytes” value in the assay with adipocyte cell 3T3-L1 is recorded as “except some (GS #05, GS #06) of seven types of ginsenosides (GS #01-GS #06, GS #10; 10 μM each) extracted from Ginseng seeds, all of them was observed to reduce the amount of fats in adipocytes”.
